MIC and IC50 data for nine compounds are collected here from article PMC10097024, “Cytotoxic and Antibacterial Prenylated Acylphloroglucinols from Hypericum olympicum L” (Plants, 2023).

Assay [1] concerns Streptococcus pyogenes (SAIMC 10535). Kind of assay: MIC by broth microdilution. As to conditions: read-out: MIC. The format is cell-based. The text has this: (§1) The Gram-positive bacterial strains that were examined for susceptibility were: Staphylococcus aureus (ATCC 29213, American Type Cell Culture Collection, Manassas, VA, USA), Staphylococcus aureus—MRSA (NBIMCC 8327-resistant to methicillin and oxacillin, National Bulgarian Collection for Industrial Microorganisms and Cell Cultures, Sofia, Bulgaria), Enterococcus faecalis (ATCC 29212) and Streptococcus pyogenes (SAIMC 10535, Collection of the Stephan Angeloff Institute of Microbiology, Sofia, Bulgaria). The only Gram-negative bacterial strain used was Escherichia coli (ATCC 35218). Bacteria were maintained in Trypticase Soy Broth (TSB, Himedia, India) at 37 °C, aerobic conditions. For the experiments brain heart infusion (BHI) broth (#M210 HiMedia, Mumbai, India) was used for E. faecalis and S. pyogenes and Mueller Hinton broth (MHB, #M0405B) from Thermo Scientific-Oxoid (Basingstoke, UK)—for all other strains.
(§2) BMD was performed according to the following protocol of ISO 20776/1-2006 [117]. A bacterial suspension with density of 10^8 CFU/mL (0.5 McFarland standard, OD600) was prepared from an overnight grown liquid bacterial culture homogenized over vortex and brought to a working bacterial suspension (WBS) with concentration of 5×10^5 CFU/mL by being diluted 200× with MHB or BHI broth and homogenized over vortex again. Two-fold serial dilutions of compounds 3–5 was prepared in 96-well round bottom plates to a volume of 50 μL and final range of concentrations 100–0.2 μg/mL. Stock solutions were dissolved in ethanol and MHB was used as diluent and as test for absence of contamination. Three wells were left as blank samples and 6 wells were left for control samples. An equivalent volume (50 μL) of the WBS was inoculated to each well in the aforementioned plates achieve final bacterial density of […] with the exception of the blank wells. After 18–24 h incubation under aerobic standardized conditions at 37 °C the plates were examined. […] Antibiotics dissolved in sterile distilled water were used as referent positive controls. They were penicillin G (PEN, #B0500000, Merck KGaA, Darmstadt, Germany) for E. faecalis and S. pyogenes, gentamicin (GEN, #15750-037, 50 mg/mL, Gibco, Paisley, UK) for all bacteria except S. pyogenes and ciprofloxacin (CIP, Ciproflav:10 mg/mL, Polfa S.A. Warsaw Pharmaceutical Works, Starogard Gdanski, Poland) for E. faecalis. The range of concentrations were 0.004–2 mg/L for PEN, 0.008–4 mg/L for GEN and 0.005–2 mg/L for CIP. The requirements of EUCAST (European Committee on Antimicrobial Susceptibility Testing) for their MICs were followed for discussing the results. In the end the plates which contained active agents were subjected to assessment of the dehydrogenase activity of the bacteria.

Assay [2] relates to Enterococcus faecalis (ATCC 29212). The experiment in a line: MIC by broth microdilution. The format is cell-based. The conditions noted are these: ATCC29212, read-out: MIC.
Source text: as §1, §2
For orientation: Broth dilution looks for growth in wells or tubes with falling amounts of substance.

Assay [3] relates to K-562 cells. As to conditions: cited from earlier work.
The test system of assay [4] is HL-60 cells. As to conditions: cited from earlier work.
Assay [5] concerns EJ. The experiment in a line: MTT cytotoxicity test. The format is cell-based, human. The conditions noted are these: Homo sapiens, 72 h exposure. The text has this: (§3) The group of human cell lines used in this study were represented by the tumor cell lines MDA-MB (breast carcinoma), EJ (urinary bladder carcinoma), K-562 (chronic myeloid leukemia), HL-60 (acute pre-myeloid leukemia), HL-60/DOX (multi-drug resistant HL-60 cell line, with over expression of MRP-1) and the non-tumorigenic cell lines HEK-293 (embryonic kidney cells) and EA.hy926 (vascular endothelial cells). EJ, HL60 and EA.hy926 were purchased from American Type Culture Collection (ATCC) (Manassas, Virginia). The other cell lines were purchased from the German Collection of Microorganisms and Cell Cultures (DSMZ GmbH, Braunschweig, Germany). HL-60/DOX cell lines were generated by periodically treating HL-60 cells with anthracyclins. The conditions in which the cell culture flasks were maintained were as follows: 37 °C in an incubator “BB 16-Function Line” Heraeus (Kendro, Hanau, Germany) with 5% CO2 humidified atmosphere. The growth medium was 90% RPMI-1640, supplemented with 10% FBS and 2 mM L-glutamine. MDA-MB-231, EJ, HEK-293 and EA.hy926 cells were maintained as adherent monolayer cultures while all the other (leukemic) cell lines were grown as suspension type cultures. Cells were maintained in log phase: the adherent cell lines were subjected to trypsinization 1–2 times a week and the leukemic cell lines were passaged 2–3 times a week by removing of part of the cellular suspension and substituting it with fresh medium.
(§4) The evaluation of cytotoxic activity was conducted by MTT test as described previously. The median inhibitory concentration (IC50) values which represent the half-maximal concentration values were calculated from sigmoidal concentration–response curves, using non-linear regression analysis (Curve fit, GraphPad Prizm 5.0 software, GraphPad Software Inc., San Diego, CA, USA). The selectivity index was calculated as the ratio of the IC50 of a non-cancerous line (HEK-293 or EA.hy926) and the average IC50 of all chemosensitive tested tumor cell lines (x). Therefore, SI=IC50HEK-293/IC50x . The resistance index (RI) was calculated as the ratio of IC50 of the multi-drug resistant HL-60/DOX cell line and the IC50 of its parent cell line: RI=IC50HL-60/DOX/IC50HL-60 .
On the technique in general: Tetrazolium assays rely on reduction of a dye to a coloured formazan, in cell work by metabolically active cells.

In assay [6] the test system is K-562. The experiment in a line: MTT cytotoxicity test. The conditions noted are these: Homo sapiens, K562, K-562, 72 h exposure. The format is cell-based, human.
Source text: as §3, §4

The test system of assay [7] is MDA-MB-231. Kind of assay: MTT cytotoxicity test. The format is cell-based, human. As to conditions: Homo sapiens, MDA-MB-231, 72 h exposure.
Source text: as §3, §4

Assay [8] deals with HL-60. Kind of assay: MTT cytotoxicity test. The format is cell-based, human. The conditions noted are these: Homo sapiens, HL-60, 72 h exposure.
Source text: as §3, §4

Assay [9] relates to HL-60/DOX. Kind of assay: MTT cytotoxicity test. The format is cell-based, human. The conditions noted are these: Homo sapiens, 72 h exposure.
Source text: as §3, §4

Assay [10] concerns Staphylococcus aureus—MRSA (NBIMCC 8327). The experiment in a line: MIC by broth microdilution. The format is cell-based. The conditions noted are these: read-out: MIC.
Source text: as §1, §2

For assay [11], the system named is Staphylococcus aureus (ATCC 29213). The experiment in a line: MIC by broth microdilution. The format is cell-based. As to conditions: ATCC29213, Staphylococcus aureus, read-out: MIC.
Source text: as §1, §2

Where “and” joins values, the source holds several entries; their conditions need not be identical. Equal entries are not always repeated. Where two headings read alike, the source gives them in different places.

Broadly, the MIC is the lowest concentration that inhibits growth of the organism. Regarding `CC1(C)S[C@@H]2[C@H](NC(=O)Cc3ccccc3)C(=O)N2[C@H]1C(=O)O` [Penicillin, penicillin G, reference compound], the MIC is 0.08 µg/mL and 0.24 µM in assay [1]; 2.5 µg/mL and 7.48 µM in [2]. The IC50 is the point on the concentration scale where inhibition reaches its midpoint. As to hyperbeanol B, the IC50 in [3] (K-562 cells) was 17 µM. Regarding Hyperisampsin M, the concentration for half-maximal inhibition (IC50) in assay [4] was 1.4 µM.

On to hyperbeanol D, for which, in assay [3] (K-562 cells), the concentration for half-maximal inhibition (IC50) was 21 µM.

Consider `COc1cc([C@@H]2c3cc4c(cc3[C@@H](O[C@@H]3O[C@@H]5CO[C@@H](C)O[C@H]5[C@H](O)[C@H]3O)[C@H]3COC(=O)[C@H]23)OCO4)cc(OC)c1O` [Etoposide, reference compound], for which the IC50 in [5] worked out at 5.4 ± 1.3 µM; in [6], 2.34 ± 0.7 µM; in assay [7], 8.42 ± 1.3 µM; in [8], 1.27 ± 0.4 µM; in assay [9], 42.3 ± 2.7 µM. For the compound hyphenrone R, the half-maximal inhibitory concentration (IC50) in assay [4] was 3.3 µM.

Take hyperforin: in [3] (K-562), the concentration for half-maximal inhibition (IC50) was 3.2 µM. As for `CNC(C)C1CCC(N)C(OC2C(N)CC(N)C(OC3OCC(C)(O)C(NC)C3O)C2O)O1` (stereo not shown) [Gentamicin, gentamicin, reference compound], the minimal inhibitory concentration (MIC) in assay [10] was 0.25 µg/mL and 0.52 µM; in [11] it was 0.25 µg/mL and 0.52 µM; in assay [2], 8 µg/mL and 16.8 µM. In the case of hyperisampsin J, the half-inhibitory concentration (IC50) in assay [4] was 0.56 µM.
